Data: patent US20170340584A1 (priority 2014, published 2017)
Values joined by “and” are separate entries in the source; they are usually repeats but may differ in a detail not shown here. Identical values can stand only once.

Columns and labels:
plasma [1] = assay: Anticoagulant activity: prothrombin time (PT); format: biochemical, human; details: 20 μl sample + 80 μl plasma, test material g/dL (Asp 7.5 mg/Ml)
Description: (§1) Antithrombotic (anticoagulant) activity was evaluated according to a previously reported method. Each of thromborel S, actin and thrombin, which are reagents for Sysmex CA-1500 for analysis of PT, aPTT and TT, was mounted in Sysmex CA-1500 (Siemens Healthcare, Germany) which is an automated blood coagulation test device. According to the automated procedure of the test device, clotting time (sec) (prothrombin time (PT), activated partial thromboplastin time (aPTT) and thrombin time (TT)) was measured. A sufficient amount of a sample for each of the three analyses was about 400 uL of an 80:20 mixture of plasma and a test substance.
(§2) The isolated plasma was used in an experiment in a fresh state within 5-6 hours.
(§3) In this experiment, for the relative comparison of the measured clotting time (sec) (PT, aPTT and TT) between test groups, clotting time prolongation (%) relative to triple distilled water (purified water) that is a normal control test sample was statistically analyzed. For statistical analysis, the […] anticoagulant activities of test materials were comparatively analyzed using SPSS IBM version 21.0 by one-way ANOVA at p<0.05, and significance comparison between groups was performed by Duncan's test.
(§4) The aspirin solution was immediately used at room temperature in a light-shielded state or was cold-stored.
(§5) As a control, aspirin was used, and as a vehicle control, triple distilled water (purified water) was used instead of the sample.

plasma [2] = assay: Anticoagulant activity: activated partial thromboplastin time (aPTT); format: biochemical, human; details: 20 μl sample + 80 μl plasma, test material g/dL (Asp 7.5 mg/Ml)
Description: as §1, §2, §3, §4, §5

plasma [3] = assay: Anticoagulant activity: thrombin time (TT); format: biochemical, human; details: 20 μl sample + 80 μl plasma, test material g/dL (Asp 7.5 mg/Ml)
Description: as §1, §2, §3, §4, §5

[4] = Body weight and body weight gain of high-fat diet mice; format: in vivo, mice (C57BL/6); details: for Body weight gain, Mean / Body weight, Mean: sample in drinking water, metformin 250 mg/kg
Description: (§6) Using 8-week-old male mice (C57BL/6) (purchased from CoreTech), anti-diabetic candidate materials were evaluated using a GTT (Glucose Tolerance Test) that is a typical method for diagnosis of diabetes.
(§7) Mice were housed at a temperature of 22±2° C. and a relative humidity of 55-60% with 12-hr light/12-hr dark cycles. Five animals were allotted to each group, and mice from the same mother were grouped into one group, because male mice tend to fight together.
(§8) As feed, high-fat diet (60% of calories from fat; Research Diet Inc., New Brunswick, N.J.) and water were fed ad libitum for 10 weeks. Herein, the water fed contained the samples prepared in Examples 1-2 (3), 2-1, 2-4-1, 2-4-2 and 2-5. As a positive control, metformin (M-072, Sigma) (250 mg/kg) was used, and as a control, the samples prepared in Comparative Examples 1-1, 2-3-2, 2-5-1, 2-5-2 and 2-6 were used.
(§9) For reference, each of the samples prepared in Examples 2-4-1, 2-4-2 and 2-5 was set to the amount to be taken by an adult (60 kg) for 3 days, and the amount was converted into a mouse dose (12-fold/kg, see the US NIH guidance), thereby preparing animal feed. Namely, the amount to be taken by an adult (60 kg) for 3 days is 180-day dose/kg, which corresponds to 15-day dose/kg for mice. Thus, the amount corresponds to 750-day dose/mouse (20 g), because the average weight of mice is about 20 g. Thus, one mouse was allowed to take 1/750 of the prepared sample each day.
(§10) In addition, each of the samples prepared in Examples 1-2 (3) and 2-1 was set to the amount to be taken by an adult (60 kg) for 2 days, and the amount was converted into a mouse dose (12-fold/kg, see the US NIH guidance), thereby preparing animal feed. Namely, the amount to be taken by an adult (60 kg) for 2 days is 120-day dose/kg, which corresponds to 10-day dose/kg for mice. Thus, the amount corresponds to 500-day dose/mouse (20 g), because the average weight of mice is about 20 g. Thus, one mouse was allowed to take 1/500 of the prepared sample each day.
The diet intake and the body weight gain were measured weekly for 8 weeks. The body weight and the diet intake were measured immediately before first drug administration, and then measured at one-week intervals.
(§11) Meanwhile, experimental analysis results were expressed as mean±S.E.M., and the significance between test groups was statistically processed using Student T-TEST, and then the significance was verified at *P<0.05.

[5] = Glucose tolerance test (GTT) in high-fat diet mice; format: in vivo, mice (C57BL/6); details: for Glucose level (mg/dl), Mean: GTT, high-fat diet mice
Description: as §6, §7, §8, §9, §10
At 8 weeks of high-fat diet feeding, a glucose tolerance test (GTT) was performed. For 8 hours for the test, mice were fasted. Then, blood was sampled from the tail vein, and initial blood glucose levels were measured with a blood glucose meter (AUTO-CHEK, Diatech Korea). Then, glucose was administered intraperitoneally to the mice at a concentration of 1 g/kg, and after 30 min, 60 min, 90 min and 120 min, blood was sampled from the mice, followed by measurement of blood glucose levels (each group consisting of five animals).
as §11

[6] = Blood biochemistry (triglyceride, AST, ALT) in high-fat diet mice; format: in vivo, mice (C57BL/6); details: blood
Description: as §6, §8
In blood biochemistry, insulin (AKRIN-011T, Shibayagi, Japan), glucose (AM202, Asan Pharmaceutical Co., Ltd., Korea), triglyceride (AM157, Asan Pharmaceutical Co., Ltd.), total cholesterol (AM202, Asan Pharmaceutical Co., Ltd.), AST and ALT (Asan Pharmaceutical Co., Ltd.) were analyzed using enzymatic assay kits.
At 10 weeks of high-fat diet feeding, the mice were sacrificed by cervical dislocation to obtain serum. For histological examination, the liver, white adipose tissue (WAT), brown adipose tissue (BAT) and kidney were fixed with formalin (50-00-0, Junsei, Japan), and the remaining organs were stored at −70° C. The blood sampled from the heart was coagulated to obtain serum which was then stored at −70° C.
as §11

[7] = Scanning electron microscope (SEM) analysis, particle size; format: physicochemical
From the text: For reference, an analysis instrument and analysis conditions are as follows. (1) Analysis instrument: HITACHI (S-2700), Japan (2) Electron gun: Tungsten filament type (3) Resolution: 4.0 nm (4) Accelerating voltage: 15.0 kV.

[8] = Thermogravimetric analysis (TGA); format: physicochemical; details: first-order differentiation of TGA; N2, 20° C./min
Description: For reference, an analysis instrument and analysis conditions are as follows. (1) Analysis instrument: TGA 7 (Perkin-Elmer) (2) Atmosphere: N2 gas (3) Heating rate: 20° C./min (4) Range: 50 to 600° C.

CC(=O)Oc1ccccc1C(=O)O [Asp, aspirin]
PT, clotting time prolongation relative to purified water, Mean (plasma [1]; Table 2): 9.90% | PT, clotting time prolongation relative to purified water, Mean (plasma [1]; Table 3): 17.51% | PT, clotting time prolongation relative to purified water, Mean (plasma [1]; Table 4): 26.02% | aPTT, clotting time prolongation relative to purified water, Mean (plasma [2]; Table 2): 7.31% | aPTT, clotting time prolongation relative to purified water, Mean (plasma [2]; Table 3): 16.28% | aPTT, clotting time prolongation relative to purified water, Mean (plasma [2]; Table 4): 29.82% | TT, clotting time prolongation relative to purified water, Mean (plasma [3]; Table 2): 13.59% | *TT, clotting time prolongation relative to purified water, Mean (plasma [3]; Table 3, values excluding one sample showing an extreme value): 20.96% | TT, clotting time prolongation relative to purified water, Mean (plasma [3]; Table 4): 23.95%

CN(C)C(=N)N=C(N)N [Metformin, metformin]
Body weight (g), Mean ([4]; 1 week): 23.550 g and 25.094 g | Body weight gain, Mean ([4]; 1 week): 1.70 g | Body weight, Mean ([4]; 1 week): 21.00 g | Body weight (g), Mean ([4]; 2 weeks): 23.608 g and 26.344 g | Body weight gain (g), Mean ([4]; 2 weeks): 2.503 g and 2.406 g | Body weight gain, Mean ([4]; 2 weeks): 3.48 g | Body weight, Mean ([4]; 2 weeks): 22.78 g | Body weight (g), Mean ([4]; 3 weeks): 25.125 g and 27.430 g | Body weight gain (g), Mean ([4]; 3 weeks): 4.020 g and 3.492 g | Body weight gain, Mean ([4]; 3 weeks): 4.54 g | Body weight, Mean ([4]; 3 weeks): 23.84 g | Body weight (g), Mean ([4]; 4 weeks): 25.705 g and 27.708 g | Body weight gain (g), Mean ([4]; 4 weeks): 4.600 g and 3.770 g | Body weight gain, Mean ([4]; 4 weeks): 5.88 g | Body weight, Mean ([4]; 4 weeks): 25.18 g | Body weight (g), Mean ([4]; 5 weeks): 27.198 g and 28.572 g | Body weight gain (g), Mean ([4]; 5 weeks): 6.093 g and 4.634 g | Body weight gain, Mean ([4]; 5 weeks): 6.42 g | Body weight, Mean ([4]; 5 weeks): 25.72 g | Body weight (g), Mean ([4]; 6 weeks): 28.355 g and 28.772 g | Body weight gain (g), Mean ([4]; 6 weeks): 7.250 g and 4.834 g | Body weight gain, Mean ([4]; 6 weeks): 7.04 g | Body weight, Mean ([4]; 6 weeks): 26.34 g | Body weight (g), Mean ([4]; 7 weeks): 27.368 g and 28.468 g | Body weight gain (g), Mean ([4]; 7 weeks): 6.263 g and 4.530 g | Body weight gain, Mean ([4]; 7 weeks): 8.22 g | Body weight, Mean ([4]; 7 weeks): 27.52 g | Body weight (g), Mean ([4]; 8 weeks): 29.343 g and 27.608 g | Body weight gain, Mean ([4]; 8 weeks): 8.90 g | Body weight, Mean ([4]; 8 weeks): 28.20 g | Body weight (g), Mean ([4]; before administration): 21.105 g and 23.938 g | Body weight, Mean ([4]; before administration): 19.30 g | Glucose level (mg/dl), Mean ([5]; 0 min): 144.20 mg/dL and 104.40 mg/dL | Glucose level (mg/dl), Mean ([5]; 30 min): 386.40 mg/dL and 438.40 mg/dL | Glucose level (mg/dl), Mean ([5]; 60 min): 301.40 mg/dL and 296.40 mg/dL | Glucose level (mg/dl), Mean ([5]; 90 min): 194.40 mg/dL and 178.00 mg/dL | Glucose level (mg/dl), Mean ([5]; 120 min): 135.20 mg/dL and 146.20 mg/dL | Triglyceride level (mg/dl), Mean [6]: 62.99 mg/dL

O=C(CO)[C@@H](O)[C@H](O)[C@H](O)CO [Fruc 6.2, fructose]
PT, clotting time prolongation relative to purified water, Mean (plasma [1]; Table 4): 0.54% | aPTT, clotting time prolongation relative to purified water, Mean (plasma [2]; Table 4): −0.20% | TT, clotting time prolongation relative to purified water, Mean (plasma [3]; Table 4): 13.19%

NCCS(=O)(=O)O [DT19, taurine]
Body weight gain, Mean ([4]; 1 week): 2.20 g | Body weight, Mean ([4]; 1 week): 21.46 g | Body weight gain, Mean ([4]; 2 weeks): 4.36 g | Body weight, Mean ([4]; 2 weeks): 23.62 g | Body weight gain, Mean ([4]; 3 weeks): 5.34 g | Body weight, Mean ([4]; 3 weeks): 24.60 g | Body weight gain, Mean ([4]; 4 weeks): 6.52 g | Body weight, Mean ([4]; 4 weeks): 25.78 g | Body weight gain, Mean ([4]; 5 weeks): 8.12 g | Body weight, Mean ([4]; 5 weeks): 27.38 g | Body weight gain, Mean ([4]; 6 weeks): 7.94 g | Body weight, Mean ([4]; 6 weeks): 27.20 g | Body weight gain, Mean ([4]; 7 weeks): 8.80 g | Body weight, Mean ([4]; 7 weeks): 28.06 g | Body weight, Mean ([4]; 8 weeks): 28.78 g | Body weight, Mean ([4]; before administration): 19.26 g | Glucose level (mg/dl), Mean ([5]; 0 min): 111.80 mg/dL | Glucose level (mg/dl), Mean ([5]; 30 min): 298.00 mg/dL | Glucose level (mg/dl), Mean ([5]; 60 min): 295.60 mg/dL | Glucose level (mg/dl), Mean ([5]; 90 min): 189.40 mg/dL | Glucose level (mg/dl), Mean ([5]; 120 min): 119.00 mg/dL | Fasting glucose level ([5]; at 8 weeks of high-fat diet feeding, 8 hours fasted): lower than that of the mice administered with high-fat diet (HFD), and were similar to the blood glucose levels of normal mice | Glucose control ability in GTT ([5]; at 8 weeks of high-fat diet feeding, glucose 1 g/kg intraperitoneally, 30-120 min): significantly higher than that of the group administered with HFD alone | ALT level (IU/L), Mean [6]: 25.47 IU/L | AST level (IU/L), Mean [6]: 118.63 IU/L | Triglyceride level (mg/dl), Mean [6]: 116.20 mg/dL | Average particle size [7]: 222.06 μm | Median particle size [7]: 192.92 μm | Final decomposition temperature [8]: 394 °C | First decomposition temperature [8]: 362 °C

O=C(CO)[C@@H](O)[C@H](O)[C@H](O)CO [Fruc 12.4, fructose]
PT, clotting time prolongation relative to purified water, Mean (plasma [1]; Table 4): 0.54% | aPTT, clotting time prolongation relative to purified water, Mean (plasma [2]; Table 4): 0.58% | TT, clotting time prolongation relative to purified water, Mean (plasma [3]; Table 4): 30.07%
